Data: US20250206732A1, “COMPOUNDS AND METHODS FOR THE TARGETED DEGRADATION OF KRAS” (Arvinas Operations, Inc., priority 2022, published 2025)

Target: T1, AsPC-1 HiBiT-KRASG12D (Homo sapiens, UniProt P01116, G12D)
T1 construct: insert the HiBiT tag onto the N-terminus of one or more of the endogenous KRAS alleles; endogenous in cells; host or cells: AsPC-1 (ATCC CRL-1682), CRISPR-Cas9 knock-in clone, one tagged allele
Assay: HiBiT degradation assay (G12D), AsPC-1 HiBiT-KRASG12D cells
Format: cell-based
Conditions: 24 hours treatment; for Dmax: ASPC1, AsPC-1 HiBiT-KRASG12D cells, maximum degradation observed; for DC50: AsPC-1 HiBiT-KRASG12D cells, HiBiT luminescence
From the text: Reagents. […] SW1573 cells are homozygous for the G12C mutation in KRAS, AsPC-1 cells are homozygous for the G12D mutation, and SW620 cells are homozygous for the G12V mutation. […] For degradation assays, 384 well plates were used. Alamar blue was purchased from ThermoFisher scientific (A50101) and used according to manufacturer instructions. The Nano-Glo® HiBiT Lytic Detection System and Nano-Glo® HiBiT Blotting System were purchased from Promega (#N3050 and #N2410) and used according to manufacturer instructions.
To create the AsPC-1 HiBiT-KRASG12D cell line, CRISPR-Cas9 was used to insert the HiBiT tag onto the N-terminus of one or more of the endogenous KRAS alleles. […] After knock-in of the tag, individual clones were isolated by single cell dilution and screened for HiBiT insertion by PCR. […] This clone was used in further studies.
HiBiT degradation assays (G12C and G12D). […] All assays were performed in triplicate. Cells were treated with compounds for 24 hours at 37° C. in an incubator containing 5% CO2. Following treatment, alamar blue was used to determine if any compounds led to a loss in cell viability after 24 hours. The 10× alamar blue reagent was added to a final concentration of 1× as recommended by the manufacturer and cells were returned to the incubator for 4 hours. Plates were then allowed to equilibrate to room temperature and fluorescence was measured using a Perkin-Elmer EnVision. After completion of the fluorescence read, the liquid from each well was removed and the cells were washed with PBS. The Nano-Glo® HiBiT detection reagent was prepared according to the manufacturer's instructions and added to each well after the PBS wash was removed. Following incubation at room temperature for 45 minutes, the luminescence was read using the ultra-sensitive luminescence aperture on the Envision instrument.
Data analysis. Fluorescence values from the alamar blue treatment were normalized to the DMSO-only control for each compound titration.

T1 sequence (P01116 1-188 isoform P01116-2 G12D): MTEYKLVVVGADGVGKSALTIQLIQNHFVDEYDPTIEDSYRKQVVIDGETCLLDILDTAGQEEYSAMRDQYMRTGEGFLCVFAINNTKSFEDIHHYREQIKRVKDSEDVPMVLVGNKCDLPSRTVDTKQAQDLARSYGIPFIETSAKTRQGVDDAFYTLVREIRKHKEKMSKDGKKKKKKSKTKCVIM

SMILES | Dmax [%] | DC50 [nM]
CCc1cccc2cc(O)cc(-c3ncc4c(N5CC6CCC(C5)N6)nc(OCCN5CCC(F)(CN6CCN(c7cc([C@H](C(=O)N8C[C@H](O)C[C@H]8C(=O)N[C@@H](C)c8ccc(-c9scnc9C)cc8)C(C)C)on7)[C@H](C)C6)CC5)nc4c3F)c12 [Compound 194, (2S,4R)-1-[(2R)-2-{3-[(2R)-4-[(1-{2-[(4-{3,8-diazabicyclo[3.2.1]octan-3-yl}-7-(8-ethyl-3-hydroxynaphthalen-1-yl)-8-fluoropyrido[4,3-d]pyrimidin-2-yl)oxy]ethyl}-4-fluoropiperidin-4-yl)methyl]-2-methylpiperazin-1-yl]-1,2-oxazol-5-yl}-3-methylbutanoyl]-4-hydroxy-N-[(1S)-1-[4-(4-methyl-1,3-thiazol-5-yl)phenyl]ethyl]pyrrolidine-2-carboxamide] | 80 to 100 | < 600
CCc1cccc2cc(O)cc(-c3ncc4c(N5CC6CCC(C5)N6)nc(OCCN5CCC(COCC(=O)N[C@H](C(=O)N6C[C@H](O)C[C@H]6C(=O)N[C@@H](C)c6ccc(-c7scnc7C)c(Cl)c6)C(C)(C)C)CC5)nc4c3F)c12 [Compound 332, (2S,4R)—N-[(1S)-1-[3-chloro-4-(4-methyl-1,3-thiazol-5-yl)phenyl]ethyl]-1-[(2S)-2-{2-[(1-{2-[(4-{3,8-diazabicyclo[3.2.1]octan-3-yl}-7-(8-ethyl-3-hydroxynaphthalen-1-yl)-8-fluoropyrido[4,3-d]pyrimidin-2-yl)oxy]ethyl}piperidin-4-yl)methoxy]acetamido}-3,3-dimethylbutanoyl]-4-hydroxypyrrolidine-2-carboxamide] | 80 to 100 | 600 to 1000
CCc1cccc2cc(O)cc(-c3ncc4c(N5CC6CCC(C5)N6)nc(OC[C@@]56CCCN5[C@H](COC(=O)N5CCN(c7cc([C@H](C(=O)N8C[C@H](O)C[C@H]8C(=O)N[C@@H](C)c8ccc(-c9scnc9C)cc8)C(C)C)on7)CC5)CC6)nc4c3F)c12 (stereo in doubt) [Compound 7] |  | < 600
CCc1cccc2cc(O)cc(-c3ncc4c(N5CC6CCC(C5)N6)nc(OCCN5CCC(CC6CCN(CC(=O)N[C@H](C(=O)N7C[C@H](O)C[C@H]7C(=O)N[C@@H](C)c7ccc(-c8scnc8C)cc7)C(C)(C)C)CC6)CC5)nc4c3F)c12 [Compound 274, (2S,4R)-1-[(2S)-2-(2-{4-[(1-{2-[(4-{3,8-diazabicyclo[3.2.1]octan-3-yl}-7-(8-ethyl-3-hydroxynaphthalen-1-yl)-8-fluoropyrido[4,3-d]pyrimidin-2-yl)oxy]ethyl}piperidin-4-yl)methyl]piperidin-1-yl}acetamido)-3,3-dimethylbutanoyl]-4-hydroxy-N-[(1S)-1-[4-(4-methyl-1,3-thiazol-5-yl)phenyl]ethyl]pyrrolidine-2-carboxamide] | 60 to 80 | < 600
CCc1cccc2cc(O)cc(-c3ncc4c(N5CC6CCC(C5)N6)nc(OC[C@]56CCCN5[C@@H](COC(=O)N5CCN(c7cc([C@H](C(=O)N8C[C@H](O)C[C@H]8C(=O)N[C@@H](C)c8ccc(-c9scnc9C)cc8)C(C)C)on7)CC5)CC6)nc4c3F)c12 (relative stereo) [Compound 110, [(3R*,7aR**)-7a-{[(4-{3,8-diazabicyclo[3.2.1]octan-3-yl}-7-(8-ethyl-3-hydroxynaphthalen-1-yl)-8-fluoropyrido[4,3-d]pyrimidin-2-yl)oxy]methyl}-hexahydro-1H-pyrrolizin-3-yl]methyl 4-{5-[(2R***)-1-[(2S,4R)-4-hydroxy-2-{[(1S)-1-[4-(4-methyl-1,3-thiazol-5-yl)phenyl]ethyl]carbamoyl}pyrrolidin-1-yl]-3-methyl-1-oxobutan-2-yl]-1,2-oxazol-3-yl}piperazine-1-carboxylate] | 80 to 100 | < 600
CCc1cccc2cc(O)cc(-c3ncc4c(N5CC6CCC(C5)N6)nc(OCCC5CCN(CC6CN(c7cc([C@H](C(=O)N8C[C@H](O)C[C@H]8C(=O)N[C@@H](C)c8ccc(-c9scnc9C)cc8)C(C)C)on7)C6)CC5)nc4c3F)c12 [Compound 218, (2S,4R)-1-[(2R)-2-(3-{3-[(4-{2-[(4-{3,8-diazabicyclo[3.2.1]octan-3-yl}-7-(8-ethyl-3-hydroxynaphthalen-1-yl)-8-fluoropyrido[4,3-d]pyrimidin-2-yl)oxy]ethyl}piperidin-1-yl)methyl]azetidin-1-yl}-1,2-oxazol-5-yl)-3-methylbutanoyl]-4-hydroxy-N-[(1S)-1-[4-(4-methyl-1,3-thiazol-5-yl)phenyl]ethyl]pyrrolidine-2-carboxamide] | 80 to 100 | < 600
CCc1cccc2cc(O)cc(-c3ncc4c(N5CC6CCC(C5)N6)nc(OCCN5CCC[C@@H](CN6CCN(c7cc([C@H](C(=O)N8C[C@H](O)C[C@H]8C(=O)N[C@@H](C)c8ccc(-c9scnc9C)cc8)C(C)C)on7)CC6)C5)nc4c3F)c12 [Compound 228] | 80 to 100 | < 600
Cc1ncsc1-c1ccc([C@H](C)NC(=O)[C@@H]2C[C@@H](O)CN2C(=O)[C@@H](c2cc(OC3CN(C(=O)OC[C@@H]4CC[C@@]5(COc6nc(N7CC8CCC(C7)N8)c7cnc(-c8cc(O)cc(Cl)c8C8CC8)c(F)c7n6)CCCN45)C3)no2)C(C)C)cc1 [Compound 306] | 80 to 100 | < 600
C#Cc1c(F)ccc2cc(O)cc(-c3ncc4c(N5CC6CCC(C5)N6)nc(OCCN5CCC(F)(CN6CCN(c7cc([C@@H](C(=O)N8C[C@H](O)C[C@H]8C(=O)N[C@@H](C)c8ccc(-c9ccnn9C)cc8)C(C)C)on7)CC6)CC5)nc4c3F)c12 [Compound 171, (2S,4R)-1-[(2S)-2-(3-{4-[(1-{2-[(4-{3,8-diazabicyclo[3.2.1]octan-3-yl}-7-(8-ethynyl-7-fluoro-3-hydroxynaphthalen-1-yl)-8-fluoropyrido[4,3-d]pyrimidin-2-yl)oxy]ethyl}-4-fluoropiperidin-4-yl)methyl]piperazin-1-yl}-1,2-oxazol-5-yl)-3-methylbutanoyl]-4-hydroxy-N-[(1S)-1-[4-(1-methyl-1H-pyrazol-5-yl)phenyl]ethyl]pyrrolidine-2-carboxamide] | 20 to 60 | 1000 to 3000
CCc1cccc2cc(O)cc(-c3ncc4c(N5CC6CCC(C5)N6)nc(OC[C@@]56CCCN5[C@H](CN5CCC(F)(COc7cc([C@H](C(=O)N8C[C@H](O)C[C@H]8C(=O)N[C@@H](C)c8ccc(-c9scnc9C)cc8)C(C)C)on7)CC5)CC6)nc4c3F)c12 [Compound 335, (2S,4R)-1-[(2R)-2-[3-[[1-[[(3S,8S)-8-[[4-(3,8-diazabicyclo[3.2.1]octan-3-yl)-7-(8-ethyl-3-hydroxy-1-naphthyl)-8-fluoro-pyrido[4,3-d]pyrimidin-2-yl]oxymethyl]-1,2,3,5,6,7-hexahydropyrrolizin-3-yl]methyl]-4-fluoro-4-piperidyl]methoxy]isoxazol-5-yl]-3-methyl-butanoyl]-4-hydroxy-N-[(1S)-1-[4-(4-methylthiazol-5-yl)phenyl]ethyl]pyrrolidine-2-carboxamide] | 80 to 100 | < 600
